In patent US9975903B2, “Condensed heterocyclic compound” (Takeda Pharmaceutical Company Limited, priority 2014, dated 2018):

What follows are compounds tested against T1, Human recombinant enteropeptidase (Homo sapiens, UniProt P98073) (assay: Human enteropeptidase inhibitory activity (Test Example 1)). Conditions: 3.3 μM test compound; inhibition rate from fluorescence intensity at 2 hours after the start of the reaction; read-out: 3.3 μM Inhibition.
T1 construct: purchased ITSI-Biosciences LLC #REN-260
Format: biochemical
Method in brief: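 Recombinant human enteropeptidase in 50 mM Tricine pH 8.0, 0.01% Tween 20, 10 mM CaCl2, with a 5FAM/CPQ2-quenched peptide substrate (2.1 μM solution before mixing). Compound came from 1 mM DMSO stock diluted 100-fold in buffer. Fluorescence (ex 485/em 535 nm) at 2 h gave % inhibition versus no-compound and no-enzyme controls.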

T1 sequence (P98073 whole entry): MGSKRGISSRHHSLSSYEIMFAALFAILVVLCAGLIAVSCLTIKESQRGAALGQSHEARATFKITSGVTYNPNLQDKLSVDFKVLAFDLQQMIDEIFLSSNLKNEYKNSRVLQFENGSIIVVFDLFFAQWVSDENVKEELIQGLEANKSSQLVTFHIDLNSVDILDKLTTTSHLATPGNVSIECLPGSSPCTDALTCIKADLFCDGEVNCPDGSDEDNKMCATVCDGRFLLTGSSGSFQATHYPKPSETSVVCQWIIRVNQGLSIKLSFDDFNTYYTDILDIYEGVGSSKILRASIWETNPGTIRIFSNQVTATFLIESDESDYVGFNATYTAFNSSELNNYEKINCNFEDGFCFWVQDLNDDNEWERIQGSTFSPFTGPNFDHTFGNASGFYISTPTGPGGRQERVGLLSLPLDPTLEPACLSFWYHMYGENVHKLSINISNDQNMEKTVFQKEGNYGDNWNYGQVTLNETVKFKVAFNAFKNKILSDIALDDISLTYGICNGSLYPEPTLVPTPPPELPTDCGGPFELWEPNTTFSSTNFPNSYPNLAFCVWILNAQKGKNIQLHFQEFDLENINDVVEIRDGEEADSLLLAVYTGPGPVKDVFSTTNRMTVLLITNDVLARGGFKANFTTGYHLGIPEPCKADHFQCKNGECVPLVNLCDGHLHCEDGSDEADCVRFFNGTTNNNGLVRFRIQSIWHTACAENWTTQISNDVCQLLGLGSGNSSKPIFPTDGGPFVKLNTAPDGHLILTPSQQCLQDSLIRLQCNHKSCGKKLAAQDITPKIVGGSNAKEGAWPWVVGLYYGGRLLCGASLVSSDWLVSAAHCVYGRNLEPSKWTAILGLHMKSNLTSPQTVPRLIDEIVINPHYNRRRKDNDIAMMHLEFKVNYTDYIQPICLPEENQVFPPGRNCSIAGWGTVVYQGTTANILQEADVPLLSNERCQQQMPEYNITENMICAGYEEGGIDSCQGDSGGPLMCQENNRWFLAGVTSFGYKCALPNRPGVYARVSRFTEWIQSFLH

inhibition at 3.3 µM [%] | SMILES
99 | N=C(N)Nc1ccc2c(c1)CCCOc1c(cccc1C(=O)N(CC(=O)O)CC(=O)N(CC(=O)O)CC(=O)O)OC2=O [Example 115, ((2-(Bis(carboxymethyl)amino)-2-oxoethyl) ((10-carbamimidamido-13-oxo-6,7,8,13-tetrahydrodibenzo[b,f][1,4]dioxecin-4-yl)carbonyl)amino)acetic acid]
99 | N=C(N)Nc1ccc2c(c1)CCCOc1c(cccc1C(=O)N(CC(=O)O)Cc1cccc(CN(CC(=O)O)CC(=O)O)c1)OC2=O [Example 116, N-(3-((Bis(carboxymethyl)amino)methyl)benzyl)-N-((10-carbamimidamido-13-oxo-6,7,8,13-tetrahydrodibenzo[b,f][1,4]dioxecin-4-yl)carbonyl)glycine]
100 | N=C(N)Nc1ccc2c(c1)CCCOc1c(cc(CCC(=O)O)cc1C(=O)N[C@@H](CC(=O)O)C(=O)O)OC2=O [Example 117, N-((10-carbamimidamido-2-(2-carboxyethyl)-13-oxo-6,7,8,13-tetrahydro-dibenzo[b,f] [1,4]dioxecin-4-yl)carbonyl)-L-aspartic acid]
101 | CN(C(=O)c1c(CCC(=O)O)ccc2c1OCCCc1cc(NC(=N)N)ccc1C(=O)O2)[C@@H](CC(=O)O)C(=O)O [Example 118, N-((10-Carbamimidamido-3-(2-carboxyethyl)-13-oxo-6,7,8,13-tetrahydrodibenzo[b,f][1,4]dioxecin-4-yl)carbonyl)-N-methyl-L-aspartic acid]
101 | N=C(N)Nc1ccc2c(c1)CCCOc1c(ccc(CCC(=O)O)c1C(=O)N(CC(=O)O)CC(=O)O)OC2=O [Example 119, 3-(4-(Bis(carboxymethyl)carbamoyl)-10-carbamimidamido-13-oxo-6,7,8,13-tetrahydrodibenzo[b,f][1,4]dioxecin-3-yl)propanoic acid]
101 | N=C(N)Nc1ccc2c(c1)CCCOc1c(cccc1C(=O)N(CC(=O)O)[C@@H](Cc1ccc(OCCNCC(=O)O)cc1)C(=O)O)OC2=O [Example 121, N-((10-Carbamimidamido-13-oxo-6,7,8,13-tetrahydrodibenzo[b,f][1,4]dioxecin-4-yl)carbonyl)-N-(carboxymethyl)-O-(2-((carboxymethyl)amino)ethyl)-L-tyrosine]
101 | N=C(N)Nc1ccc2c(c1)CCCOc1c(ccc(CCC(=O)NC(CC(=O)O)CC(=O)O)c1C(=O)N[C@@H](Cc1ccc(O)cc1)C(=O)O)OC2=O [Example 123, 3-((3-(10-carbamimidamido-4-(((1S)-1-carboxy-2-(4-hydroxyphenyl)ethyl)carbamoyl)-13-oxo-6,7,8,13-tetrahydro-dibenzo[b,f] [1,4]dioxecin-3-yl)propanoyl)amino) pentanedioic acid]
101 | N=C(N)Nc1ccc2c(c1)CCCOc1c(ccc(CCC(=O)N(CC(=O)O)CC(=O)O)c1C(=O)N[C@@H](Cc1ccc(O)cc1)C(=O)O)OC2=O [Example 124, N-((3-(3-(bis(carboxymethyl)amino)-3-oxopropyl)-10-carbamimidamido-13-oxo-6,7,8,13-tetrahydro-dibenzo[b,f] [1,4]dioxecin-4-yl)carbonyl)-L-tyrosine]
100 | N=C(N)Nc1ccc2c(c1)CCCOc1c(cccc1C(=O)N(CC(=O)O)Cc1cccc(CN(CC(=O)O)CC(=O)O)n1)OC2=O [Example 126, N-((6-((bis(carboxy-methyl)amino)methyl)pyridin-2-yl)methyl)-N-((10-carbamimidamido-13-oxo-6,7,8,13-tetrahydro-dibenzo[b,f] [1,4]dioxecin-4-yl)carbonyl)glycine]
100 | N=C(N)Nc1ccc2c(c1)CCCOc1c(cccc1C(=O)N(CC(=O)O)Cc1ccccc1C(=O)O)OC2=O [Example 127]
100 | N=C(N)Nc1ccc2c(c1)CCCCc1c(cccc1C(=O)N(CC(=O)O)Cc1cccc(C(=O)O)c1)OC2=O [Example 128]
